Laboratory results reported in ChEMBL document CHEMBL3885881, “DrugMatrix”.

Species: Rattus norvegicus
Test: DrugMatrix - Regimen: Daily Repeat
Type: toxicity, organism-based, Sprague-Dawley
Design: regimen Daily Repeat, gender Male, age 6-8 weeks
Details: in vivo, po, route oral GAVAGE, vehicle 100 % WATER; for ABSOLUTE BASOPHIL / ABSOLUTE EOSINOPHIL / ABSOLUTE LYMPHOCYTE / ABSOLUTE MONOCYTE / ABSOLUTE SEGMENTED NEUTROPHIL / BASOPHIL / EOSINOPHIL / ERYTHROCYTE COUNT / HEMATOCRIT / HEMOGLOBIN / LEUKOCYTE COUNT / LYMPHOCYTE / MEAN CORPUSCULAR HEMOGLOBIN / MEAN CORPUSCULAR HEMOGLOBIN CONCENTRATION / MEAN CORPUSCULAR VOLUME / MONOCYTE / NEUTROPHIL / NUCLEATED RED BLOOD CELLS / PLATELET COUNT: tissue Blood; for ALANINE AMINOTRANSFERASE / ALBUMIN / ALKALINE PHOSPHATASE / ASPARTATE AMINOTRANSFERASE / BLOOD UREA NITROGEN / CARBON DIOXIDE / CHLORIDE / CHOLESTEROL / CREATINE PHOSPHOKINASE / CREATININE / GLUCOSE / LACTATE DEHYDROGENASE / LIPASE / PHOSPHORUS / POTASSIUM / SODIUM / TOTAL BILIRUBIN / TOTAL PROTEIN / URIC ACID: tissue Plasma
[1] = 0 mg/kg, 72 h, dose level Control, time 3 day
[2] = 0 mg/kg, 120 h, dose level Control, time 5 day
[3] = 30 mg/kg, 72 h, dose level Low, time 3 day

Compound: CC1COc2c(N3CCN(C)CC3)c(F)cc3c(=O)c(C(=O)O)cn1c23 (centres undefined) [OFLOXACIN]
- ABSOLUTE BASOPHIL [1]: 0 CELLS/uL
- ABSOLUTE EOSINOPHIL [1]: 0 CELLS/uL
- ABSOLUTE LYMPHOCYTE [1]: 10386.33 CELLS/uL
- ABSOLUTE MONOCYTE [1]: 88.5 CELLS/uL
- ABSOLUTE SEGMENTED NEUTROPHIL [1]: 1008.5 CELLS/uL
- BASOPHIL [1]: 0%
- EOSINOPHIL [1]: 0%
- ERYTHROCYTE COUNT [1]: 5.16 x10E6/uL
- HEMATOCRIT [1]: 32.43%
- HEMOGLOBIN [1]: 12.98 G/DL
- LEUKOCYTE COUNT [1]: 11.48 x10E3/uL
- LYMPHOCYTE [1]: 92.33%
- MEAN CORPUSCULAR HEMOGLOBIN [1]: 25.23 pg
- MEAN CORPUSCULAR HEMOGLOBIN CONCENTRATION [1]: 40.08 G/DL
- MEAN CORPUSCULAR VOLUME [1]: 62.95 fL
- MONOCYTE [1]: 0.67%
- NEUTROPHIL [1]: 7%
- NUCLEATED RED BLOOD CELLS [1]: 0 /100WBC
- PLATELET COUNT [1]: 1016.67 x10E3/uL
- ALANINE AMINOTRANSFERASE [1]: 62.17 u/L
- ALBUMIN [1]: 3.95 G/DL
- ALKALINE PHOSPHATASE [1]: 363.5 u/L
- ASPARTATE AMINOTRANSFERASE [1]: 118 u/L
- BLOOD UREA NITROGEN [1]: 14.5 mg/dL
- CARBON DIOXIDE [1]: 22.83 mmol/L
- CHLORIDE [1]: 100.67 MEQ/L
- CHOLESTEROL [1]: 66 mg/dL
- CREATINE PHOSPHOKINASE [1]: 1308.83 u/L
- CREATININE [1]: 0.22 mg/dL
- GLUCOSE [1]: 187.5 mg/dL
- LACTATE DEHYDROGENASE [1]: 380.17 u/L
- LIPASE [1]: 16.17 u/L
- PHOSPHORUS [1]: 14.27 mg/dL
- POTASSIUM [1]: 6.8 MEQ/L
- SODIUM [1]: 142.53 MEQ/L
- TOTAL BILIRUBIN [1]: 0.2 mg/dL
- TOTAL PROTEIN [1]: 5.68 G/DL
- URIC ACID [1]: 2.87 mg/dL
- ABSOLUTE BASOPHIL [2]: 0 CELLS/uL
- ABSOLUTE EOSINOPHIL [2]: 80 CELLS/uL
- ABSOLUTE LYMPHOCYTE [2]: 13301.33 CELLS/uL
- ABSOLUTE MONOCYTE [2]: 180.83 CELLS/uL
- ABSOLUTE SEGMENTED NEUTROPHIL [2]: 1187.83 CELLS/uL
- BASOPHIL [2]: 0%
- EOSINOPHIL [2]: 0.5%
- ERYTHROCYTE COUNT [2]: 5.54 x10E6/uL
- HEMATOCRIT [2]: 35.65%
- HEMOGLOBIN [2]: 14.22 G/DL
- LEUKOCYTE COUNT [2]: 14.75 x10E3/uL
- LYMPHOCYTE [2]: 90.67%
- MEAN CORPUSCULAR HEMOGLOBIN [2]: 25.65 pg
- MEAN CORPUSCULAR HEMOGLOBIN CONCENTRATION [2]: 39.88 G/DL
- MEAN CORPUSCULAR VOLUME [2]: 64.35 fL
- MONOCYTE [2]: 1%
- NEUTROPHIL [2]: 7.83%
- NUCLEATED RED BLOOD CELLS [2]: 0.17 /100WBC
- PLATELET COUNT [2]: 1285.33 x10E3/uL
- ALANINE AMINOTRANSFERASE [2]: 51.67 u/L
- ALBUMIN [2]: 4.08 G/DL
- ALKALINE PHOSPHATASE [2]: 391.5 u/L
- ASPARTATE AMINOTRANSFERASE [2]: 99.5 u/L
- BLOOD UREA NITROGEN [2]: 15.5 mg/dL
- CARBON DIOXIDE [2]: 28.33 mmol/L
- CHLORIDE [2]: 101.83 MEQ/L
- CHOLESTEROL [2]: 67.83 mg/dL
- CREATINE PHOSPHOKINASE [2]: 771.33 u/L
- CREATININE [2]: 0.23 mg/dL
- GLUCOSE [2]: 156.5 mg/dL
- LACTATE DEHYDROGENASE [2]: 544.33 u/L
- LIPASE [2]: 10.17 u/L
- PHOSPHORUS [2]: 12.03 mg/dL
- POTASSIUM [2]: 6.81 MEQ/L
- SODIUM [2]: 144.13 MEQ/L
- TOTAL BILIRUBIN [2]: 0.22 mg/dL
- TOTAL PROTEIN [2]: 6 G/DL
- URIC ACID [2]: 2.18 mg/dL
- ABSOLUTE BASOPHIL [3]: 0 CELLS/uL
- ABSOLUTE EOSINOPHIL [3]: 95.33 CELLS/uL
- ABSOLUTE LYMPHOCYTE [3]: 12358.67 CELLS/uL
- ABSOLUTE MONOCYTE [3]: 136.33 CELLS/uL
- ABSOLUTE SEGMENTED NEUTROPHIL [3]: 1043 CELLS/uL
- BASOPHIL [3]: 0%
- EOSINOPHIL [3]: 0.67%
- ERYTHROCYTE COUNT [3]: 5.52 x10E6/uL
- HEMATOCRIT [3]: 36.03%
- HEMOGLOBIN [3]: 13.97 G/DL
- LEUKOCYTE COUNT [3]: 13.63 x10E3/uL
- LYMPHOCYTE [3]: 90.67%
- MEAN CORPUSCULAR HEMOGLOBIN [3]: 25.4 pg
- MEAN CORPUSCULAR HEMOGLOBIN CONCENTRATION [3]: 38.77 G/DL
- MEAN CORPUSCULAR VOLUME [3]: 65.33 fL
- MONOCYTE [3]: 1%
- NEUTROPHIL [3]: 7.67%
- NUCLEATED RED BLOOD CELLS [3]: 0 /100WBC
- PLATELET COUNT [3]: 1082 x10E3/uL
- ALANINE AMINOTRANSFERASE [3]: 46.67 u/L
- ALBUMIN [3]: 4.03 G/DL
- ALKALINE PHOSPHATASE [3]: 420.67 u/L
- ASPARTATE AMINOTRANSFERASE [3]: 75 u/L
- BLOOD UREA NITROGEN [3]: 13.33 mg/dL
- CARBON DIOXIDE [3]: 28 mmol/L
- CHLORIDE [3]: 100.33 MEQ/L
- CHOLESTEROL [3]: 76.33 mg/dL
- CREATINE PHOSPHOKINASE [3]: 165.33 u/L
- CREATININE [3]: 0.19 mg/dL
- GLUCOSE [3]: 159 mg/dL
- LACTATE DEHYDROGENASE [3]: 114 u/L
- LIPASE [3]: 10.67 u/L
- PHOSPHORUS [3]: 13.07 mg/dL
- POTASSIUM [3]: 6.69 MEQ/L
- SODIUM [3]: 143.73 MEQ/L
- TOTAL BILIRUBIN [3]: 0.2 mg/dL
- TOTAL PROTEIN [3]: 5.87 G/DL
- URIC ACID [3]: 1.23 mg/dL
